Experimental data published in patent US20080166403A1, “Long circulating liposome” (Industrial Technology Research Institute, priority 2003, published 2008).

Experiment: Circulation time of liposomes in the body: Doxorubicin concentration in rat blood by a pharmacokinetics method with HPLC analysis
Type: in vivo
Details: 8 hours after injection, FIG. 1
Description: In this example, the concentration of Doxorubicin in the blood is determined by a pharmacokinetics method, and HPLC analysis is performed subsequently.
Doxo. is compared with DO503 liposomes (Example 1) and DO502 liposomes (Example 2), wherein Doxo. represents the free doxorubicin solution. […] Especially for DO503, it even exists in rat blood 48 hours after injection.

Question: Which “Doxorubicin concentration in rat blood” value does the source give for COc1cccc2c1C(=O)c1c(O)c3c(c(O)c1C2=O)C[C@@](O)(C(=O)CO)C[C@@H]3O[C@H]1C[C@H](N)[C@H](O)[C@H](C)O1 [Doxo., doxorubicin] here?
Answer: almost no Doxorubicin concentration detected
